Experimental data reported in patent EP0257992A2, “Prophylactic and therapeutic agents for cerebral ischemia” (YAMANOUCHI PHARMACEUTICAL CO. LTD., priority 1986, dated 1988).
Marks after values point to notes of the source that are not given here.

Legend:
low oxygen-loaded mice = test: Survival time of low oxygen-loaded mice; format: in vivo, Male ICR mice; settings: 300 mg/kg single dose 10 minutes before inhalation of 95.3% nitrogen / 4.7% oxygen; 14 animals; control 201±18
Method: Male ICR mice (weighing about 30 g) were put in a glass vessel having a volume of 2 liters, equipped with an inhalation opening and an exhaust opening. A gaseous mixture of 95.3% nitrogen and 4.7% oxygen was blown into the vessel at 5 ℓ/min. to cause a low oxygen state, and the time for mice to die was measured. The ester was intravenously administered 10 minutes before the inhalation of the gaseous mixture. Only physiological saline was given to the control group.
(1) mg/kg i.p.: amount of a single dose given. (2) Unit: second * 5%is a significant difference in death rate as compared to the control group (group given physiological saline).

[1] = tested on: rats ligated at carotids (both sides); test: Death of rats ligated at both carotids (cerebral ischemia); format: in vivo, male Wistar rats; settings: 300 mg/kg i.p. per single dose, given immediately after and 1 and 2 hours after ligation; dead animals 24 hours after ligation; 24 animals; control 21 dead
Method: Both carotids of male Wistar rats (weighting about 300 g) were permanently ligated to cause a cerebral ischemic state. The rats suffered neural conditions (paralysis or spasm of the limbs, etc.) and most of them died in 24 hours. The influence of the ester on death 24 hours afer ligation was examined. The ester was intraperitoneally administered immediately after the ligation, and 1 and 2 hours after the ligation. Physiological saline alone was given to the control group.
(1) mg/kg i.p.: amount of a single dose given. (2) Number of dead animals 24 hours after ligation *5% is a significant difference in death rate compared to the control group (group given physiological saline.

autoblood-injected rats = test: Neural condition (duration of forced posture) of autoblood-injected rats; format: in vivo, Male Wistar rats; settings: 300 mg/kg i.p. once a day, 30 minutes after administration
Method: (§1) Male Wistar rats (weighing about 300 g) were anesthesized with pentobarbital (40 mg/kg i.e.) and fixed on a brain normal position fixing device. In order to form hematoma in the brain, 0.2 cc of autoblood previously collected from the tail vein was injected in the site of the brain at 4 mm to the right from the arrow suture, at 2 mm to the tail side from the crown suture and at 4 mm of the brain surface. The left rear paw was forced onto a stand having a height of 4.5 cm and the time from which the forced posture was maintained was measured and evaluated as neural condition. The ester was intraperitoneally administered immediately after the injection of autoblood and then once a day. Physiological saline alone was given to the control group. The measurement of neural condition was made after the operation daily for 4 consecutive days, 30 minutes after administration.
(1) mg/kg i.p.: amount of a single dose given. (2) Unit: second (3) Number of days after the operation. *5% is a significant difference in duration as compared to the control group (group given physiological saline). **1% is a significant difference in duration as compared to the control group. Number of animals: 10 - 11.

[2] = Acute toxicity (LD50) on intraperitoneal injection into mice; settings: mouse, in vivo, ip, read-out: acute toxicity (LD₅₀)
From the text: The isopropyl ester (I) and salts have an acute toxicity (LD₅₀) of approximately 5.3 g/kg on intraperitoneal injection into mice.

[3] = tested on: Malonedealdehyde in the Brain of Rats Injected with Autoblood; test: Malonedealdehyde (lipid peroxide) content in the brain of autoblood-injected rats; format: in vivo, Male Wistar rats; settings: 300 mg/kg i.p. once a day; right hemispherical brain on the fourth day after the operation; control 168±15
Method: as §1, with “The measurement of neural condition was made after the operation daily for 4 consecutive days, 30 minutes after administration.” left out
Immediately after the observation of the neural condition on the fourth day of the operation, the head of each rat was cut off and the right hemispherical brain was isolated. The lipid peroxides in the brain were fluorometrically determined by forming about 10% of a homogenate with 1.15% potassium chloride, taking 0.1 ml of the homogenate and measuring using malonedealdehyde as a standard substance according to Yagi's method.
Futher in Table IV are shown the results of the effect on malonedealdehyde in the brain. The results were evaluated by the Student's t-test. […]

SMILES: CC(C)OC(=O)CNC(=O)[C@H](CS)NC(=O)CC[C@H](N)C(=O)O [Glutathione monoisopropyl ester, isopropyl γ-L-glutamyl-L-cysteinyl glycinate]
- Survival Time (low oxygen-loaded mice): 262 ± 22 s
- Number of Dead Animals [1]: 15*
- Duration, Day 1 (autoblood-injected rats; Day 1 after the operation, control 42±10): 11 ± 5 s
- Duration, Day 2 (autoblood-injected rats; Day 2 after the operation, control 53±12): 22 ± 11 s
- Duration, Day 3 (autoblood-injected rats; Day 3 after the operation, control 43±11): 8 ± 1 s
- Duration, Day 4 (autoblood-injected rats; Day 4 after the operation, control 31±10): 7 ± 1 s
- LD50 [2]: ~5300 mg/kg
- Content of Malonedealdehyde [3]: 97±20 nmol/g wet weight
